Source: patent US20230293407A1, “Compositions Comprising (Bio)-Alkanediols with Antimicrobials for Product Protection” (Symrise AG, priority 2020, published 2023)

Key:
Candida albicans = experiment: preservation efficacy test (PET), European Pharmacopoeia 5.1.3; type: cell-based; conditions: for count at 2 days / count at 7 days / count at 14 days / count at 28 days: CA, use concentration in label
bacteria = experiment: preservation efficacy test (PET), overview of the effect against bacteria; type: cell-based; conditions: PET in formulation, result in words on Table 7
Staphylococcus aureus = experiment: preservation efficacy test (PET), European Pharmacopoeia 5.1.3; type: cell-based
Aspergillus brasiliensis = experiment: as above; type: cell-based; conditions: for count at 2 days / count at 7 days / count at 14 days / count at 28 days: AB, use concentration in label
[1] = maximum water solubility of alkanediols, visual observation; type: physicochemical; conditions: ambient temperature after 24 h storage at 5° C.
From the text: The water solubility of a substance is the saturation mass concentration of the substance in water at a given temperature. The determination of the solubility in water relates to essentially pure substances which are stable in water and not volatile. The determination of the water solubility of the alkanediols is further described in the following Example 2.
For the determination of the maximum water solubility of an alkanediol, water and different concentrations of the respective alkanediol were blended by stirring. […] The determination of whether the alkanediol has dissolved in water is based entirely on visual observation.

Pseudomonas aeruginosa = experiment: preservation efficacy test (PET), European Pharmacopoeia 5.1.3; type: cell-based
yeast = experiment: preservation efficacy test (PET), overview of the effect against yeast; type: cell-based, Candida albicans; conditions: PET in formulation, result in words on Table 7
fungi/mould = experiment: preservation efficacy test (PET), overview of the effect against fungi/mould; type: cell-based, Aspergillus brasiliensis; conditions: PET in formulation, result in words on Table 7
Escherichia coli = experiment: preservation efficacy test (PET), European Pharmacopoeia 5.1.3; type: cell-based; conditions: for number of microorganisms, 14 days / number of microorganisms, 28 days: Escherichia coli (EC)
[2] = 28 days after inoculation, substance at given % in test formulation, listed as 0.2% 1,2-heptanediol
[3] = 2 days after inoculation, listed as 0.6% 1,2-heptanediol
[4] = 2 days after inoculation, listed as 0.8% 1,2-heptanediol
[5] = 7 days after inoculation, listed as 0.6% 1,2-heptanediol
[6] = 7 days after inoculation, listed as 0.8% 1,2-heptanediol
[7] = 14 days after inoculation, listed as 0.6% 1,2-heptanediol
[8] = 14 days after inoculation, listed as 0.8% 1,2-heptanediol
[9] = 28 days after inoculation, listed as 0.6% 1,2-heptanediol
[10] = 28 days after inoculation, listed as 0.8% 1,2-heptanediol
[11] = 2 days after inoculation, substance at given % in test formulation, listed as 0.2% 1,2-heptanediol
[12] = 7 days after inoculation, substance at given % in test formulation, listed as 0.2% 1,2-heptanediol
[13] = 14 days after inoculation, substance at given % in test formulation
[14] = 28 days after inoculation, substance at given % in test formulation
[15] = 28 days after inoculation, substance at given % in test formulation, listed as 0.4% 1,2-heptanediol

SMILES: CCCCCC(O)CO (stereo not drawn) [1,2-heptanediol]
- CA germ count, 28 days (Candida albicans; [2]): 620.000
- count at 2 days (Candida albicans; [3]): 69.000
- count at 2 days (Candida albicans; [4]): 68.000
- count at 7 days (Candida albicans; [5]): 2.800
- count at 7 days (Candida albicans; [6]): 1
- count at 14 days (Candida albicans; [7]): 1
- count at 14 days (Candida albicans; [8]): 1
- count at 28 days (Candida albicans; [9]): 1
- count at 28 days (Candida albicans; [10]): 1
- number of microorganisms, 2 days (Candida albicans; PET in shampoo, Candida albicans (CA), 2 days after inoculation): 220.000
- number of microorganisms, 7 days (Candida albicans; PET in shampoo, Candida albicans (CA), 7 days after inoculation): 62.000
- number of microorganisms, 14 days (Candida albicans; PET in shampoo, Candida albicans (CA), 14 days after inoculation): 8.100
- number of microorganisms, 28 days (Candida albicans; PET in shampoo, Candida albicans (CA), 28 days after inoculation): 1
- antimicrobial efficacy against bacteria (bacteria): concentration dependent antimicrobial efficacy
- SA germ count, 2 days (Staphylococcus aureus; [11]): 95.000
- SA germ count, 7 days (Staphylococcus aureus; [12]): 1
- SA germ count, 14 days (Staphylococcus aureus; [13]): 1
- SA germ count, 28 days (Staphylococcus aureus; [14]): 1
- number of microorganisms, 2 days (Staphylococcus aureus; PET in shampoo, Staphylococcus aureus (SA), 2 days after inoculation): 10
- number of microorganisms, 7 days (Staphylococcus aureus; PET in shampoo, Staphylococcus aureus (SA), 7 days after inoculation): 10
- number of microorganisms, 14 days (Staphylococcus aureus; PET in shampoo, Staphylococcus aureus (SA), 14 days after inoculation): 1
- number of microorganisms, 28 days (Staphylococcus aureus; PET in shampoo, Staphylococcus aureus (SA), 28 days after inoculation): 1
- number of microorganisms, 14 days (Staphylococcus aureus; PET, Staphylococcus aureus (SA), 14 days after inoculation): 1
- number of microorganisms, 28 days (Staphylococcus aureus; PET, Staphylococcus aureus (SA), 28 days after inoculation): 1
- count at 2 days (Staphylococcus aureus; SA, 2 days after inoculation, use concentration in label, listed as 0.6% 1,2-heptanediol): 1
- count at 2 days (Staphylococcus aureus; SA, 2 days after inoculation, use concentration in label, listed as 0.8% 1,2-heptanediol): 1
- count at 7 days (Staphylococcus aureus; SA, 7 days after inoculation, use concentration in label, listed as 0.6% 1,2-heptanediol): 1
- count at 7 days (Staphylococcus aureus; SA, 7 days after inoculation, use concentration in label, listed as 0.8% 1,2-heptanediol): 1
- count at 14 days (Staphylococcus aureus; SA, 14 days after inoculation, use concentration in label): 1
- count at 28 days (Staphylococcus aureus; SA, 28 days after inoculation, use concentration in label): 1
- AB germ count, 28 days (Aspergillus brasiliensis; [15]): 1
- count at 2 days (Aspergillus brasiliensis; [3]): 510.000
- count at 2 days (Aspergillus brasiliensis; [4]): 670.000
- count at 7 days (Aspergillus brasiliensis; [5]): 16.000
- count at 7 days (Aspergillus brasiliensis; [6]): 410.000
- count at 14 days (Aspergillus brasiliensis; [7]): 51.000
- count at 14 days (Aspergillus brasiliensis; [8]): 63.000
- count at 28 days (Aspergillus brasiliensis; 28 days after inoculation, listed as 0.4% 1,2-heptanediol): 1
- count at 28 days (Aspergillus brasiliensis; [9]): 1
- count at 28 days (Aspergillus brasiliensis; [10]): 1.100
- efficacy against Aspergillus brasiliensis (Aspergillus brasiliensis; PET in formulation, result in words on Table 7): significantly efficacy
- number of microorganisms, 2 days (Aspergillus brasiliensis; PET in shampoo, Aspergillus brasiliensis (AB), 2 days after inoculation): 240.000
- number of microorganisms, 7 days (Aspergillus brasiliensis; PET in shampoo, Aspergillus brasiliensis (AB), 7 days after inoculation): 220.000
- number of microorganisms, 14 days (Aspergillus brasiliensis; PET in shampoo, Aspergillus brasiliensis (AB), 14 days after inoculation): 150.000
- number of microorganisms, 28 days (Aspergillus brasiliensis; PET in shampoo, Aspergillus brasiliensis (AB), 28 days after inoculation): 19.000
- Maximum solubility in water [1]: 2.5 % by weight
- PA germ count, 2 days (Pseudomonas aeruginosa; 2 days after inoculation, substance at given % in test formulation): 1
- PA germ count, 7 days (Pseudomonas aeruginosa; 7 days after inoculation, substance at given % in test formulation): 1
- PA germ count, 14 days (Pseudomonas aeruginosa; [13]): 1
- PA germ count, 28 days (Pseudomonas aeruginosa; [14]): 1
- count at 2 days (Pseudomonas aeruginosa; PA, 2 days after inoculation, use concentration in label): 1
- count at 7 days (Pseudomonas aeruginosa; PA, 7 days after inoculation, use concentration in label): 1
- count at 14 days (Pseudomonas aeruginosa; PA, 14 days after inoculation, use concentration in label): 1
- count at 28 days (Pseudomonas aeruginosa; PA, 28 days after inoculation, use concentration in label): 1
- antimicrobial efficacy against yeast (yeast): concentration dependent antimicrobial efficacy
- antimicrobial efficacy against fungi (fungi/mould): concentration dependent antimicrobial efficacy
- EC germ count, 2 days (Escherichia coli; [11]): 38.000
- EC germ count, 7 days (Escherichia coli; [12]): 73
- EC germ count, 14 days (Escherichia coli; 14 days after inoculation, substance at given % in test formulation, listed as 0.2% 1,2-heptanediol): 1
- EC germ count, 14 days (Escherichia coli; 14 days after inoculation, substance at given % in test formulation, listed as 0.4% 1,2-heptanediol): 1
- EC germ count, 28 days (Escherichia coli; [2]): 1
- EC germ count, 28 days (Escherichia coli; [15]): 1
- count at 2 days (Escherichia coli; EC, 2 days after inoculation, use concentration in label, listed as 0.6% 1,2-heptanediol): 1
- count at 2 days (Escherichia coli; EC, 2 days after inoculation, use concentration in label, listed as 0.8% 1,2-heptanediol): 1
- count at 7 days (Escherichia coli; EC, 7 days after inoculation, use concentration in label, listed as 0.6% 1,2-heptanediol): 1
- count at 7 days (Escherichia coli; EC, 7 days after inoculation, use concentration in label, listed as 0.8% 1,2-heptanediol): 1
- count at 14 days (Escherichia coli; EC, 14 days after inoculation, use concentration in label): 1
- count at 28 days (Escherichia coli; EC, 28 days after inoculation, use concentration in label): 1
- number of microorganisms, 14 days (Escherichia coli; PET in shampoo, 14 days after inoculation): 200.000
- number of microorganisms, 28 days (Escherichia coli; PET in shampoo, 28 days after inoculation): 1
- number of microorganisms, 14 days (Escherichia coli; PET, 14 days after inoculation): 1
- number of microorganisms, 28 days (Escherichia coli; PET, 28 days after inoculation): 1
